For this assay, the system named is IL-2 secretion. In words: Inhibition of IL-2 secretion in PHA-stimulated Jurkat T cells (ELISA). As to conditions: Homo sapiens, PHA stimulation, 20 to 24 hours, IL-2 by ELISA. It counts as cell-based. The protocol: The CRAC channel modulatory activity of the compounds were thus evaluated by measuring the secretion of IL-2 by antigen stimulated T-cells in vitro. Alternatively, such activity can also be evaluated by assay methods known to one skilled in the art.
Inhibition of IL-2 secretion: Jurkat T cells were seeded at a density of 0.5 to 1 million cells per well in RPMI medium. Test compounds from this invention were added to the cells at different concentrations. This was followed by the addition of PHA, a T cell mitogen after 10 minutes. The cells were then incubated for 20 to 24 hours in a CO2 incubator at 37° C. After incubation with the compounds, cells were centrifuged, the supernatant was collected and processed for ELISA to quantitate the amount of IL-2 secreted. A commercial ELISA kit (R&D Systems, Inc. Minneapolis, Minn., USA) was used to estimate the IL-2 concentrations. Amount of IL-2 secreted by cells stimulated with PHA was considered as a 100% maximal signal and the decrease in amount of IL-2 secreted by cells treated with the test compounds was expressed as percent inhibition of the maximal signal. The dose response data was analyzed using 4-parametric sigmoidal dose response (variable slope) curve—fit.
Background: In an ELISA, binding on a coated surface is turned into a signal by an enzyme label.

These results are taken from patent US9409898B2, “Substituted pyrazole compounds as CRAC modulators” (LUPIN LIMITED, priority 2012, dated 2016).

What is called IC50 is the concentration at which inhibition is half-maximal. The compound `Cn1nc(-c2cc(C(F)(F)F)nn2-c2ccc(NC(=O)c3c(F)cccc3F)cn2)oc1=O` [Example 1, 2,6-Difluoro-N-(6-(5-(4-methyl-5-oxo-4,5-dihydro-1,3,4-oxadiazol-2-yl)-3-(trifluoromethyl)-1H-pyrazol-1-yl)pyridin-3-yl)benzamide] registered an IC50 of 100 to 1000 nM.

The compound `Cc1cccc(F)c1C(=O)Nc1ccc(-n2nc(C(F)(F)F)cc2-c2nn(C)c(=O)o2)nc1` [Example 2, 2-Fluoro-6-methyl-N-(6-(5-(4-methyl-5-oxo-4,5-dihydro-1,3,4-oxadiazol-2-yl)-3-(trifluoromethyl)-1H-pyrazol-1-yl)pyridin-3-yl)benzamide] came in with a concentration for half-maximal inhibition (IC50) of 100 to 1000 nM.

Consider `Cn1nc(-c2cc(C3CC3)nn2-c2ccc(NCc3c(F)cccc3F)cn2)oc1=O` [Example 3, 5-(3-Cyclopropyl-1-(5-((2,6-difluorobenzyl)amino)pyridin-2-yl)-1H-pyrazol-5-yl)-3-methyl-1,3,4-oxadiazol-2(3H)-one], for which the IC50 was 100 to 1000 nM.

With `Cn1nc(-c2cc(C(F)F)nn2-c2ccc(NC(=O)c3c(F)cccc3F)cn2)oc1=O` [Example 4, N-(6-(3-(Difluoromethyl)-5-(4-methyl-5-oxo-4,5-dihydro-1,3,4-oxadiazol-2-yl)-1H-pyrazol-1-yl)pyridin-3-yl)-2,6-difluorobenzamide], the IC50 was greater than 1000 nM.

Take `Cn1nc(-c2cc(CF)n(-c3ccc(NCc4c(F)cccc4F)cn3)n2)oc1=O` [Example 5, 5-(1-(5-((2,6-Difluorobenzyl)amino)pyridin-2-yl)-5-(fluoromethyl)-1H-pyrazol-3-yl)-3-methyl-1,3,4-oxadiazol-2(3H)-one]: the IC50 lay in the range of 100 to 1000 nM.

With `COC(=O)C1(C)CC(c2cc(C(F)(F)F)n(-c3ccc(NCc4c(F)cccc4F)cn3)n2)=NO1` (stereo not drawn) [Example 6, Methyl 3-(1-(5-((2,6-difluorobenzyl)amino)pyridin-2-yl)-5-(trifluoromethyl)-1H-pyrazol-3-yl)-5-methyl-4,5-dihydroisoxazole-5-carboxylate], the half-maximal inhibitory concentration (IC50) lay within 100 to 1000 nM.

Compound `COC(=O)C1(C)CC(c2cc(C(F)(F)F)n(-c3ccc(NCc4c(F)cccc4Cl)cn3)n2)=NO1` (stereo not drawn) [Example 7, Methyl 3-(1-(5-((2-chloro-6-fluorobenzyl)amino)pyridin-2-yl)-5-(trifluoromethyl)-1H-pyrazol-3-yl)-5-methyl-4,5-dihydroisoxazole-5-carboxylate] showed an IC50 of 100 to 1000 nM.

With `Cn1nc(-c2cc(C(F)(F)F)n(-c3ccc(NC(=O)c4c(F)cccc4F)cn3)n2)oc1=O` [Example 8, 2,6-Difluoro-N-(6-(3-(4-methyl-5-oxo-4,5-dihydro-1,3,4-oxadiazol-2-yl)-5-(trifluoromethyl)-1H-pyrazol-1-yl)pyridin-3-yl)benzamide], the half-inhibitory concentration (IC50) was less than 100 nM.

In turn, `Cn1nc(-c2cc(C(F)(F)F)n(-c3ccc(NC(=O)c4c(F)cccc4Cl)cn3)n2)oc1=O` [Example 9, 2-Chloro-6-fluoro-N-(6-(3-(4-methyl-5-oxo-4,5-dihydro-1,3,4-oxadiazol-2-yl)-5-(trifluoromethyl)-1H-pyrazol-1-yl)pyridin-3-yl)benzamide] showed an IC50 of less than 100 nM.

The compound `Cc1cccc(F)c1C(=O)Nc1ccc(-n2nc(-c3nn(C)c(=O)o3)cc2C(F)(F)F)nc1` [Example 10, 2-Fluoro-6-methyl-N-(6-(3-(4-methyl-5-oxo-4,5-dihydro-1,3,4-oxadiazol-2-yl)-5-(trifluoromethyl)-1H-pyrazol-1-yl)pyridin-3-yl)benzamide] had an IC50 of less than 100 nM.

Compound `Cn1nc(-c2cc(C(F)F)n(-c3ccc(NC(=O)c4c(F)cccc4F)cn3)n2)oc1=O` [Example 11, N-(6-(5-(Difluoromethyl)-3-(4-methyl-5-oxo-4,5-dihydro-1,3,4-oxadiazol-2-yl)-1H-pyrazol-1-yl)pyridin-3-yl)-2,6-difluorobenzamide] had an IC50 of less than 100 nM.

The compound `Cn1nc(-c2cc(C(F)F)n(-c3ccc(NCc4c(F)cccc4F)cn3)n2)oc1=O` [Example 12, 5-(1-(5-((2,6-Difluorobenzyl)amino)pyridin-2-yl)-5-(difluoromethyl)-1H-pyrazol-3-yl)-3-methyl-1,3,4-oxadiazol-2(3H)-one] yielded an IC50 of less than 100 nM.

In the case of `Cn1nc(-c2cc(C(F)F)nn2-c2ccc(NCc3c(F)cccc3F)cn2)oc1=O` [Example 13, 5-(1-(5-((2,6-Difluorobenzyl)amino)pyridin-2-yl)-3-(difluoromethyl)-1H-pyrazol-5-yl)-3-methyl-1,3,4-oxadiazol-2(3H)-one], the half-inhibitory concentration (IC50) is greater than 1000 nM.

`CC1(C)ON=C(c2cc(C(F)(F)F)n(-c3ccc(NC(=O)c4c(F)cccc4F)cn3)n2)C1=O` [Example 14, N-(6-(3-(5,5-Dimethyl-4-oxo-4,5-dihydroisoxazol-3-yl)-5-(trifluoromethyl)-1H-pyrazol-1-yl)pyridin-3-yl)-2,6-difluorobenzamide] returned an IC50 of less than 100 nM.

`CC1(C)ON=C(c2cc(C(F)(F)F)n(-c3ccc(NC(=O)c4c(F)cccc4Cl)cn3)n2)C1=O` [Example 15, 2-Chloro-N-(6-(3-(5,5-dimethyl-4-oxo-4,5-dihydroisoxazol-3-yl)-5-(trifluoromethyl)-1H-pyrazol-1-yl)pyridin-3-yl)-6-fluorobenzamide] came in with a 50% inhibitory concentration (IC50) of less than 100 nM.

Consider `CN1N=C(c2cc(C(F)(F)F)n(-c3ccc(NC(=O)c4c(F)cccc4F)cn3)n2)C(C)(C)C1=O` [Example 16, 2,6-Difluoro-N-(6-(1′,4′,4′-trimethyl-5′-oxo-5-(trifluoromethyl)-4′,5′-dihydro-1H,1′H-[3,3′-bipyrazol]-1-yl)pyridin-3-yl)benzamide], for which the IC50 lay in the range of 100 to 1000 nM.

`CN1N=C(c2cc(C(F)(F)F)n(-c3ccc(NC(=O)c4c(F)cccc4Cl)cn3)n2)C(C)(C)C1=O` [Example 17, 2-Chloro-6-fluoro-N-(6-(1′,4′,4′-trimethyl-5′-oxo-5-(trifluoromethyl)-4′,5′-dihydro-1H,1′H-[3,3′-bipyrazol]-1-yl)pyridin-3-yl)benzamide] came in with an IC50 of 100 to 1000 nM.

For the compound `Cc1cccc(F)c1C(=O)Nc1ccc(-n2nc(C3=NN(C)C(=O)C3(C)C)cc2C(F)(F)F)nc1` [Example 18, 2-Fluoro-6-methyl-N-(6-(1′,4′,4′-trimethyl-5′-oxo-5-(trifluoromethyl)-4′,5′-dihydro-1H,1′H-[3,3′-bipyrazol]-1-yl)pyridin-3-yl)benzamide], the half-inhibitory concentration (IC50) was less than 100 nM.

For the compound `Cn1c(-c2cc(C(F)(F)F)n(-c3ccc(NC(=O)c4c(F)cccc4F)cn3)n2)noc1=O` [Example 19, 2,6-Difluoro-N-(6-(3-(4-methyl-5-oxo-4,5-dihydro-1,2,4-oxadiazol-3-yl)-5-(trifluoromethyl)-1H-pyrazol-1-yl)pyridin-3-yl)benzamide], the IC50 was 100 to 1000 nM.

Turning to `CC(=O)N1N=C(c2cc(C(F)(F)F)n(-c3ccc(NC(=O)c4c(F)cccc4F)cn3)n2)OC1(C)C` [Example 20, N-(6-(3-(4-Acetyl-5,5-dimethyl-4,5-dihydro-1,3,4-oxadiazol-2-yl)-5-(trifluoromethyl)-1H-pyrazol-1-yl)pyridin-3-yl)-2,6-difluorobenzamide], the IC50 was 100 to 1000 nM.

For the compound `CC1(C)COC(c2cc(C(F)(F)F)n(-c3ccc(NC(=O)c4c(F)cccc4F)cn3)n2)=N1` [Example 21, N-(6-(3-(4,4-Dimethyl-4,5-dihydrooxazol-2-yl)-5-(trifluoromethyl)-1H-pyrazol-1-yl)pyridin-3-yl)-2,6-difluorobenzamide], the concentration for half-maximal inhibition (IC50) was in the range of 100 to 1000 nM.

In turn, `Cn1nc(-c2cc(C(F)(F)F)n(-c3ccc(NCc4c(F)cccc4F)cn3)n2)oc1=O` [Example 22, 5-(1-(5-((2,6-Difluorobenzyl)amino)pyridin-2-yl)-5-(trifluoromethyl)-1H-pyrazol-3-yl)-3-methyl-1,3,4-oxadiazol-2(3H)-one] registered an IC50 of less than 100 nM.

For the compound `Cn1nc(-c2cc(C(F)(F)F)n(-c3ccc(NCc4c(F)cccc4Cl)cn3)n2)oc1=O` [Example 23, 5-(1-(5-((2-Chloro-6-fluorobenzyl)amino)pyridin-2-yl)-5-(trifluoromethyl)-1H-pyrazol-3-yl)-3-methyl-1,3,4-oxadiazol-2(3H)-one], the IC50 was less than 100 nM.

`CN1N=C(c2cc(C(F)(F)F)n(-c3ccc(NCc4c(F)cccc4F)cn3)n2)C(C)(C)C1=O` [Example 24, 1′-(5-((2,6-Difluorobenzyl)amino)pyridin-2-yl)-1,4,4-trimethyl-5′-(trifluoromethyl)-1H,1′H-[3,3′-bipyrazol]-5(4H)-one] registered a half-maximal inhibitory concentration (IC50) of 100 to 1000 nM.

As for `CN1N=C(c2cc(C(F)(F)F)n(-c3ccc(NCc4c(F)cccc4Cl)cn3)n2)C(C)(C)C1=O` [Example 25, 1′-(5-((2-Chloro-6-fluorobenzyl)amino)pyridin-2-yl)-1,4,4-trimethyl-5′-(trifluoromethyl)-1H,1′H-[3,3′-bipyrazol]-5(4H)-one], the IC50 was in the range of 100 to 1000 nM.

`Cn1c(-c2cc(C(F)(F)F)n(-c3ccc(NCc4c(F)cccc4F)cn3)n2)noc1=O` [Example 26, 3-(1-(5-((2,6-Difluorobenzyl)amino)pyridin-2-yl)-5-(trifluoromethyl)-1H-pyrazol-3-yl)-4-methyl-1,2,4-oxadiazol-5(4H)-one] registered an IC50 of 100 to 1000 nM.

Take `CC(=O)N1N=C(c2cc(C(F)(F)F)n(-c3ccc(NCc4c(F)cccc4F)cn3)n2)OC1(C)C` [Example 27, 1-(5-(1-(5-((2,6-Difluorobenzyl)amino)pyridin-2-yl)-5-(trifluoromethyl)-1H-pyrazol-3-yl)-2,2-dimethyl-1,3,4-oxadiazol-3(2H)-yl)ethanone]: the IC50 lay within 100 to 1000 nM.
